The results in this text go back to patent US8592426B2, “Aryl-benzocycloalkyl amide derivatives” (Hoffmann—La Roche Inc., priority 2011, dated 2013).

Assay [1] addresses T1, Bradykinin-1 receptor (Homo sapiens (Human), UniProt P46663). As to the kind of experiment: Receptor binding assay (B1R Binding Assay), [3H]-Kallidin (Des Arg10, Leu9) displacement. To be noted: membranes from CHO-K1 cells overexpressing Bradykinin-1 receptor; 6 nM radioligand. The method, then: Binding assays were done with membranes from CHO-K1 cells overexpressing Bradykinin-1 receptor.
To determine non-specific binding 10 μM Lys-(Des-Arg^9)-Bradykinin (Bachem) was added. Membranes were harvested through GF/B (glass fiber filter; PerkinElmer) plates, equilibrated with 0.5% polyethylenimine, air dried at 50° C. for 2 h. Radioactivity was determined by counting in a topcounter (NXT Packard).

Assay [2] has as its target T1, Bradykinin-1 receptor. Briefly: Calcium mobilization assay (FLIPR, Fluo-4) in GeneBLAzer Bradykinin (B1)-NFAT-bla CHO-K1 cells. It counts as cell-based. Conditions: antagonist activity; CHO-K1 cells stably overexpressing the human bradykinin 1 receptor; read-out: Ca mobilization Assay IC50. The method, then:
Calcium Mobilization Assay
GeneBLAzer® Bradykinin (B1)-NFAT-bla CHO-K1 cells (from Invitrogen) stably overexpressing the human bradykinin 1 receptor were cultured in DMEM (high glucose) supplemented with 10% dialysed FBS, 1% NEAA (non essential amino acids) 1% penicillin/streptomycin, 1% G418 and 0.1 mg/ml zeocin.
For the assay cells were grown overnight in 384-well black clear flat bottom polystyrene plates (Costar) at 37° C. at 5% CO2. After washing with DMEM, 20 mM Hepes, 2.5 mM probenecid, 0.1% BSA (DMEM assay buffer) cells were loaded with 4 μM Fluo-4 in the same DMEM assay buffer for 2 hours at 30° C. Excess dye was removed and cells were washed with DMEM assay buffer. 384-well compound plates were prepared with DMEM assay buffer/0.5% DMSO with or without various concentrations of test compounds. Usually compounds were tested for agonist and antagonist activity.
Test compounds were added to the assay plate and agonist activity was monitored as fluorescence for 80 seconds with a FLIPR (488 nm excitation; 510-570 nm emission; Molecular Devices). After 20-30 min. of incubation at 30° C., 20 nM […] (R&D; Roche) was added and fluorescence was monitored again for 80 seconds. Increases in intracellular calcium are reported as maximum fluorescence after agonist exposure minus basal fluorescence before exposure.
For orientation: Calcium flux is commonly read through the fluorescence of an indicator in the cells.

T1 sequence (P46663 whole entry): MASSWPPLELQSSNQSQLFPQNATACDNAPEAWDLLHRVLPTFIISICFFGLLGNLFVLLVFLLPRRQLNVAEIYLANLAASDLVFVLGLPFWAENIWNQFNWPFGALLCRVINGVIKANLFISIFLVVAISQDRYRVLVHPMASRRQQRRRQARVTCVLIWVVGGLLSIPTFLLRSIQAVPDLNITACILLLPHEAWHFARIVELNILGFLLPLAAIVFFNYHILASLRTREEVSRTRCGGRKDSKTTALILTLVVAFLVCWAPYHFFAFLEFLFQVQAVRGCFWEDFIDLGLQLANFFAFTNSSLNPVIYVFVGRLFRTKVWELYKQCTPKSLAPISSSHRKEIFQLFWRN

Consider `Cc1nc(-c2c(F)cc(Cl)cc2-c2ccc3c(c2)OCC3NC(=O)C2(NC(=O)c3ccnnc3)CC2)no1` (racemic) [Example 46, Pyridazine-4-carboxylic acid(1-{(rac)-6-[5-chloro-3-fluoro-2-(5-methyl-[1,2,4]oxadiazol-3-yl)-phenyl]-2,3-dihydro-benzofuran-3-ylcarbamoyl}-cyclopropyl)-amide], for which affinity on Bradykinin-1 receptor [1] was put at a Ki of 19.1 nM. The 50% inhibitory concentration (IC50) on Bradykinin-1 receptor [2] was 4.7 nM.
For `Cc1nc(-c2c(F)cc(Cl)cc2-c2cc(F)c3c(c2)CCC3NC(=O)C2(NC(=O)c3ccnnc3)CC2)no1` (racemic) [Example 34, Pyridazine-4-carboxylic acid(1-{(rac)-5-[5-chloro-3-fluoro-2-(5-methyl-[1,2,4]oxadiazol-3-yl)-phenyl]-7-fluoro-indan-1-ylcarbamoyl}-cyclopropyl)-amide] the same measures were 15.1 nM and 0.6 nM.
For `Cn1nnc(-c2c(F)cc(Cl)cc2-c2ccc3c(c2)OCCC3NC(=O)C2(NC(=O)C(F)(F)F)CC2)n1` (racemic) [Example 15, 1-(2,2,2-Trifluoro-acetylamino)-cyclopropanecarboxylic acid{(rac)-7-[5-chloro-3-fluoro-2-(2-methyl-2H-tetrazol-5-yl)-phenyl]-chroman-4-yl}-amide] the same measures were 170 nM and 24.6 nM.
The like results for `Cc1nc(-c2c(F)cc(Cl)cc2-c2ccc3c(c2)CC[C@@H]3NC(=O)C2(NC(=O)C(F)(F)F)COC2)no1` [Example 7, 3-(2,2,2-Trifluoro-acetylamino)-oxetane-3-carboxylic acid{(S)-5-[5-chloro-3-fluoro-2-(5-methyl-[1,2,4]oxadiazol-3-yl)-phenyl]-indan-1-yl}-amide] were, in that order, 37.4 nM and 28.6 nM.
At Bradykinin-1 receptor [1], `Cc1nc(-c2c(F)cc(Cl)cc2-c2ccc3c(c2)CC[C@@H]3NC(=O)C2(NC(=O)c3ccno3)COC2)no1` [Example 51, Isoxazole-5-carboxylic acid (3-{(S)-5-[5-chloro-3-fluoro-2-(5-methyl-[1,2,4]oxadiazol-3-yl)-phenyl]-indan-1-ylcarbamoyl}-oxetan-3-yl)-amide] showed a Ki of 11.8 nM. In addition, at Bradykinin-1 receptor [2], the IC50 was determined as 2.7 nM.
The like results for `Cc1nc(-c2c(F)cc(Cl)cc2-c2cnc3c(c2)CCC3NC(=O)C2(NC(=O)C(F)(F)F)CC2)no1` (racemic) [Example 12, 1-(2,2,2-Trifluoro-acetylamino)-cyclopropanecarboxylic acid{(rac)-3-[5-chloro-3-fluoro-2-(5-methyl-[1,2,4]oxadiazol-3-yl)-phenyl]-6,7-dihydro-5H-[1]pyrindin-7-yl}-amide] were, in that order, 4.4 nM and 0.5 nM.
For `COc1cc(C(=O)NC2(C(=O)NC3CSc4cc(-c5cc(Cl)cc(F)c5-c5nnn(C)n5)ccc43)CC2)on1` (racemic) [Example 65, 3-Methoxy-isoxazole-5-carboxylic acid(1-{(rac)-6-[5-chloro-3-fluoro-2-(2-methyl-2H-tetrazol-5-yl)-phenyl]-2,3-dihydro-benzo[b]thiophen-3-ylcarbamoyl}-cyclopropyl)-amide], the Ki at Bradykinin-1 receptor [1] was 4.4 nM. For the same compound, the half-maximal inhibitory concentration (IC50) at Bradykinin-1 receptor [2] turned out to be 0.2 nM.
At Bradykinin-1 receptor [1], `COc1ncc(C(=O)NC2(C(=O)NC3COc4cc(-c5cc(Cl)cc(F)c5-c5noc(C)n5)ccc43)CC2)cn1` (racemic) [Example 47, 2-Methoxy-pyrimidine-5-carboxylic acid(1-{(rac)-6-[5-chloro-3-fluoro-2-(5-methyl-[1,2,4]oxadiazol-3-yl)-phenyl]-2,3-dihydro-benzofuran-3-ylcarbamoyl}-cyclopropyl)-amide] came in with a Ki of 5.4 nM. The IC50 on Bradykinin-1 receptor [2] was 0.2 nM.
For `Cn1nnc(-c2c(F)cc(Cl)cc2-c2cnc3c(c2)CCC3NC(=O)C2(N)CC2)n1` (racemic) [Example 55, 1-Amino-cyclopropanecarboxylic acid{(rac)-3-[5-chloro-3-fluoro-2-(2-methyl-2H-tetrazol-5-yl)-phenyl]-6,7-dihydro-5H-[1]pyrindin-7-yl}-amide] the same measures were 211 nM and 61.1 nM.

One may read the Ki as the equilibrium dissociation constant of an inhibitor or competing ligand from its target. A high value points to weaker binding. A word on the IC50: it is the concentration that gives 50% inhibition.
